pIC50: −log10 of the molar value.
molecular target: Human Factor D (Homo sapiens (Human), UniProt P00746); assay: Human Factor D Assay; format: biochemical; conditions: not given
How it was run: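 Thioesterase activity monitored with Z-L-Lys-SBzl plus Ellman's reagent (DTNB), each 100 μM final, after 5 min room-temperature compound preincubation of 80 nM human serum Factor D in pH 7.5 Tris (50 mM)/1M NaCl.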

Sequence of Human Factor D (P00746 26-253): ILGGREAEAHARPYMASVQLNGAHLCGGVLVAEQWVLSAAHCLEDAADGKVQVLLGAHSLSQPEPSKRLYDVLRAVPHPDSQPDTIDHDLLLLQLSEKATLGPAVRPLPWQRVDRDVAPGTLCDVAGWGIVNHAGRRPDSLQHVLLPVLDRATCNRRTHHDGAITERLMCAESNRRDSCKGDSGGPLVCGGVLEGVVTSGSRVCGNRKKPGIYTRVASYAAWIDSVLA

SMILES | pIC50
CC(=O)c1cn(CC(=O)N2C[C@H](F)C[C@H]2C(=O)Nc2cccc(-c3ccccc3Cl)c2Cl)c2ccc(-c3cnc(C)nc3)cc12 [Compound 149, (2S,4R)-1-(2-(3-acetyl-5-(2-methylpyrimidin-5-yl)-1H-indol-1-yl)acetyl)-N-(2,2′-dichlorobiphenyl-3-yl)-4-fluoropyrrolidine-2-carboxamide] | > 6.00
CC(=O)c1cn(CC(=O)N2C[C@H](F)C[C@H]2C(=O)Nc2cc(O)ccn2)c2ccc(-c3ccnnc3)cc12 [Compound 177, (2S,4R)-1-(2-(3-acetyl-5-(pyridazin-4-yl)-1H-indol-1-yl)acetyl)-4-fluoro-N-(4-hydroxypyridin-2-yl)pyrrolidine-2-carboxamide] | 5.00 to 6.00
NC(=O)c1nn(CC(=O)N2C[C@H](F)C[C@H]2C(=O)Nc2ncc(I)cn2)c2ccc(-c3ccnnc3)cc12 [Compound 179, 1-(2-((2S,4R)-4-fluoro-2-(5-iodopyrimidin-2-ylcarbamoyl)pyrrolidin-1-yl)-2-oxoethyl)-5-(pyridazin-4-yl)-1H-indazole-3-carboxamide] | 5.00 to 6.00

same assay, conditions: Human Factor D 80 nM, substrate Z-L-Lys-SBzl; read-out: IC50

SMILES | pIC50
NC(=O)c1nn(CC(=O)N2C[C@H](F)C[C@H]2C(=O)N[C@@H]2CCC[C@H]2O)c2ccc(-c3ccnnc3)cc12 [Compound 145, 1-(2-((2S,4R)-4-fluoro-2-((1R,2R)-2-hydroxycyclopentylcarbamoyl)pyrrolidin-1-yl)-2-oxoethyl)-5-(pyridazin-4-yl)-1H-indazole-3-carboxamide] | < 5.00
NC(=O)c1nn(CC(=O)N2C[C@H](F)C[C@H]2C(=O)Nc2nc(-c3cccc(Cl)c3)ns2)c2ccc(-c3ccnnc3)cc12 [Compound 146, 1-(2-((2S,4R)-2-(3-(3-chlorophenyl)-1,2,4-thiadiazol-5-ylcarbamoyl)-4-fluoropyrrolidin-1-yl)-2-oxoethyl)-5-(pyridazin-4-yl)-1H-indazole-3-carboxamide] | < 5.00
CC(=O)c1cn(CC(=O)N2C[C@H](F)C[C@H]2C(=O)Nc2nc(-c3cccc(Cl)c3)ns2)c2ccc(-c3ccnnc3)cc12 [Compound 147, (2S,4R)-1-(2-(3-acetyl-5-(pyridazin-4-yl)-1H-indol-1-yl)acetyl)-N-(3-(3-chlorophenyl)-1,2,4-thiadiazol-5-yl)-4-fluoropyrrolidine-2-carboxamide] | < 5.00
CC(=O)c1cn(CC(=O)N2C[C@H](F)C[C@H]2C(=O)Nc2cccc(-c3cc(F)c(F)cc3Cl)c2F)c2ccc(-c3cnc(C)nc3)cc12 [Compound 150, (2S,4R)-1-(2-(3-acetyl-5-(2-methylpyrimidin-5-yl)-1H-indol-1-yl)acetyl)-N-(2′-chloro-2,4′,5′-trifluorobiphenyl-3-yl)-4-fluoropyrrolidine-2-carboxamide] | > 6.00
CC(=O)c1cn(CC(=O)N2C[C@H](F)C[C@H]2C(=O)Nc2cccc(-c3ccccc3Cl)c2F)c2ccc(-c3ccc(C)nc3)cc12 [Compound 151, (2S,4R)-1-(2-(3-acetyl-5-(6-methylpyridin-3-yl)-1H-indol-1-yl)acetyl)-N-(2′-chloro-2-fluorobiphenyl-3-yl)-4-fluoropyrrolidine-2-carboxamide] | > 6.00
CC1Oc2cccc(NC(=O)[C@@H]3C[C@@H](F)CN3C(=O)Cn3nc(C(N)=O)c4cc(-c5ccnnc5)ccc43)c2NC1=O (stereo partly drawn) [Compound 152, 1-(2-((2S,4R)-4-fluoro-2-(2-methyl-3-oxo-3,4-dihydro-2H-benzo[b][1,4]oxazin-5-ylcarbamoyl)pyrrolidin-1-yl)-2-oxoethyl)-5-(pyridazin-4-yl)-1H-indazole-3-carboxamide] | < 5.00
CC(=O)c1cn(CC(=O)N2C[C@H](F)C[C@H]2C(=O)Nc2cccc3c2NC(=O)C(C)O3)c2ccc(-c3ccnnc3)cc12 (stereo partly drawn) [Compound 153, (2S,4R)-1-(2-(3-acetyl-5-(pyridazin-4-yl)-1H-indol-1-yl)acetyl)-4-fluoro-N-(2-methyl-3-oxo-3,4-dihydro-2H-benzo[b][1,4]oxazin-5-yl)pyrrolidine-2-carboxamide] | < 5.00
NC(=O)c1nn(CC(=O)N2C[C@H](F)C[C@H]2C(=O)Nc2cc(O)ccn2)c2ccc(-c3ccnnc3)cc12 [Compound 154, 1-(2-((2S,4R)-4-fluoro-2-(4-hydroxypyridin-2-ylcarbamoyl)pyrrolidin-1-yl)-2-oxoethyl)-5-(pyridazin-4-yl)-1H-indazole-3-carboxamide] | < 5.00
Cn1ccc(N2CCC(NC(=O)[C@@H]3C[C@@H](F)CN3C(=O)Cn3nc(C(N)=O)c4cc(-c5ccnnc5)ccc43)C2=O)n1 (stereo partly drawn) [Compound 155, 1-(2-((2S,4R)-4-fluoro-2-(1-(1-methyl-1H-pyrazol-3-yl)-2-oxopyrrolidin-3-ylcarbamoyl)pyrrolidin-1-yl)-2-oxoethyl)-5-(pyridazin-4-yl)-1H-indazole-3-carboxamide] | < 5.00
CC(=O)c1cn(CC(=O)N2C[C@H](F)C[C@H]2C(=O)Nc2c[nH]nc2-c2ccc(Cl)cc2Cl)c2ccc(-c3ccnnc3)cc12 [Compound 156, (2S,4R)-1-(2-(3-acetyl-5-(pyridazin-4-yl)-1H-indol-1-yl)acetyl)-N-(3-(2,4-dichlorophenyl)-1H-pyrazol-4-yl)-4-fluoropyrrolidine-2-carboxamide] | < 5.00
NC(=O)c1nn(CC(=O)N2C[C@H](F)C[C@H]2C(=O)NCc2ccncc2)c2ccc(-c3ccnnc3)cc12 [Compound 157, 1-(2-((2S,4R)-4-fluoro-2-(pyridin-4-ylmethylcarbamoyl)pyrrolidin-1-yl)-2-oxoethyl)-5-(pyridazin-4-yl)-1H-indazole-3-carboxamide] | < 5.00
Cc1cc(NC(=O)[C@@H]2C[C@@H](F)CN2C(=O)Cn2nc(C(N)=O)c3cc(-c4ccnnc4)ccc32)n(-c2ccccc2F)n1 [Compound 158, 1-(2-((2S,4R)-4-fluoro-2-(1-(2-fluorophenyl)-3-methyl-1H-pyrazol-5-ylcarbamoyl)pyrrolidin-1-yl)-2-oxoethyl)-5-(pyridazin-4-yl)-1H-indazole-3-carboxamide] | < 5.00
CC(=O)c1cn(CC(=O)N2C[C@@H](F)C[C@@H]2C(=O)NC2CCCN(c3ccccc3Cl)C2=O)c2ccc(-c3ccnnc3)cc12 (stereo partly drawn) [Compound 161, (2R,4S)-1-(2-(3-acetyl-5-(pyridazin-4-yl)-1H-indol-1-yl)acetyl)-N-(1-(2-chlorophenyl)-2-oxopiperidin-3-yl)-4-fluoropyrrolidine-2-carboxamide] | > 6.00
CC(=O)c1nn(CC(=O)N2C[C@H](F)C[C@H]2C(=O)Nc2cccc(-c3ccccc3Cl)c2F)c2ccc(-c3cnc(C)nc3)cc12 [Compound 163, (2S,4R)-1-(2-(3-acetyl-5-(2-methylpyrimidin-5-yl)-1H-indazol-1-yl)acetyl)-N-(2′-chloro-2-fluorobiphenyl-3-yl)-4-fluoropyrrolidine-2-carboxamide] | > 6.00
CC(=O)c1cn(CC(=O)N2C[C@H](F)C[C@H]2C(=O)Nc2cccc(-c3ncccc3Cl)c2F)c2ccc(-c3cnc(C)nc3)cc12 [Compound 164, (2S,4R)-1-(2-(3-acetyl-5-(2-methylpyrimidin-5-yl)-1H-indol-1-yl)acetyl)-N-(3-(3-chloropyridin-2-yl)-2-fluorophenyl)-4-fluoropyrrolidine-2-carboxamide] | > 6.00
NC(=O)c1nn(CC(=O)N2C[C@H](F)C[C@H]2C(=O)Nc2cc(=O)[nH]n2C2CCCCC2)c2ccc(-c3ccnnc3)cc12 [Compound 168, 1-(2-((2S,4R)-2-(2-cyclohexyl-5-oxo-2,5-dihydro-1H-pyrazol-3-ylcarbamoyl)-4-fluoropyrrolidin-1-yl)-2-oxoethyl)-5-(pyridazin-4-yl)-1H-indazole-3-carboxamide] | < 5.00
CC(=O)c1cn(CC(=O)N2C[C@H](F)C[C@H]2C(=O)Nc2n[nH]c(C)c2-c2ccccc2)c2ccc(-c3ccnnc3)cc12 [Compound 169, (2S,4R)-1-(2-(3-acetyl-5-(pyridazin-4-yl)-1H-indol-1-yl)acetyl)-4-fluoro-N-(5-methyl-4-phenyl-1H-pyrazol-3-yl)pyrrolidine-2-carboxamide] | > 6.00
NC(=O)c1nn(CC(=O)N2C[C@H](F)C[C@H]2C(=O)N[C@H]2CCCC[C@@H]2O)c2ccc(-c3ccnnc3)cc12 [Compound 172, 1-(2-((2S,4R)-4-fluoro-2-((1S,2S)-2-hydroxycyclohexylcarbamoyl)pyrrolidin-1-yl)-2-oxoethyl)-5-(pyridazin-4-yl)-1H-indazole-3-carboxamide] | < 5.00
CC(=O)c1cn(CC(=O)N2C[C@H](F)C[C@H]2C(=O)Nc2ccnc(=O)n2C)c2ccc(-c3ccnnc3)cc12 [Compound 173, (2S,4R)-1-(2-(3-acetyl-5-(pyridazin-4-yl)-1H-indol-1-yl)acetyl)-4-fluoro-N-(3-methyl-2-oxo-2,3-dihydropyrimidin-4-yl)pyrrolidine-2-carboxamide] | < 5.00
NC(=O)c1nn(CC(=O)N2C[C@H](F)C[C@H]2C(=O)Nc2cccc(O)n2)c2ccc(-c3ccnnc3)cc12 [Compound 174, 1-(2-((2S,4R)-4-fluoro-2-(6-hydroxypyridin-2-ylcarbamoyl)pyrrolidin-1-yl)-2-oxoethyl)-5-(pyridazin-4-yl)-1H-indazole-3-carboxamide] | < 5.00
CC(=O)c1cn(CC(=O)N2C[C@H](F)C[C@H]2C(=O)Nc2ccc(O)cn2)c2ccc(-c3ccnnc3)cc12 [Compound 175, (2S,4R)-1-(2-(3-acetyl-5-(pyridazin-4-yl)-1H-indol-1-yl)acetyl)-4-fluoro-N-(5-hydroxypyridin-2-yl)pyrrolidine-2-carboxamide] | < 5.00
NC(=O)c1nn(CC(=O)N2C[C@H](F)C[C@H]2C(=O)Nc2ccc(O)cn2)c2ccc(-c3ccnnc3)cc12 [Compound 176, 1-(2-((2S,4R)-4-fluoro-2-(5-hydroxypyridin-2-ylcarbamoyl)pyrrolidin-1-yl)-2-oxoethyl)-5-(pyridazin-4-yl)-1H-indazole-3-carboxamide] | < 5.00
NC(=O)c1nn(CC(=O)N2C[C@H](F)C[C@H]2C(=O)Nc2nccc(Cl)n2)c2ccc(-c3ccnnc3)cc12 [Compound 178, 1-(2-((2S,4R)-2-(4-chloropyrimidin-2-ylcarbamoyl)-4-fluoropyrrolidin-1-yl)-2-oxoethyl)-5-(pyridazin-4-yl)-1H-indazole-3-carboxamide] | < 5.00

Reference: patent publication US10287301B2 (Achillion Pharmaceuticals, Inc., priority 2015, dated 2019)
